Where two headings read alike, the source gives them in different places.
Columns and labels:
[1] = target: T1, BTK (Homo sapiens, UniProt Q06187); test: Immunoblot of endogenous BTK in TMD8 cells; type: cell-based; parameters: performed with full-length BTK and endogenous DCAF1; expressed in transfected cells; host or cells: TMD8 cells, lentiviral, blasticidin-selected (TMD8 BTK-GFP/mCh)
Procedure: Whole cell lysates for immunoblotting were prepared by pelleting cells at 4 °C (300 g) for 3 min. Cell pellets were then washed 1x with PBS and resuspended in RIPA lysis buffer (VWR, cat # 97063-270) supplemented with protease (Thermo Scientific, cat # A32955) and phosphatase (Thermo Scientific, cat # A32957) inhibitor tablets. Lysates were clarified at 16,000 × g for 15 min at 4 °C prior to quantification by Lowry assay (Bio-Rad cat # 5000113 and cat # 5000114). Whole-cell lysates were loaded into 4–20% Criterion TGX Precast 18 well gels (Bio-Rad, cat # 5671094) and separated by electrophoreses at 120 V for 1 h. The gels were transferred to a nitrocellulose membrane using the Trans-Blot Turbo (Bio-Rad) for 7 min and then blocked for 1 h at room temperature in Odyssey blocking buffer (LICOR Biosciences, cat # 927-50000). Membranes were probed with the appropriate primary antibodies (diluted 1:1000) overnight at 4 °C in 20% Odyssey blocking buffer in 1x TBST. Membranes were washed three times with 1x TBST (5 min per wash), and then incubated with IRDye goat anti-mouse (LICOR, cat # 926-32210) or goat anti-rabbit (LICOR, cat # 926-32211) secondary antibody diluted 1:10,000 in 20% Odyssey blocking buffer for 1 h at room temperature. After three 5-min washes with 1x TBST, the immunoblots were visualized using the ODYSSEY Infrared Imaging System (LICOR). Alternatively, SDS-PAGE resolved proteins were transferred to a PVDF membrane using a wet blotting system (Invitrogen). Membranes were blocked in 5% Milk-PBS-Tween 20 for 1 h and incubated with primary antibody over night at 4 °C. Secondary antibodies (secondary antibody: anti-rabbit, goat pAb to Rb-IgG (Abcam, #7090); secondary antibody: anti-mouse, sheep IgG HRP-linked (GE healthcare, #NA931V)) were incubated for 1 h at room temperature (RT) before blots were developed on film using the detection kit SuperSignal West Femto Maximum Sensitivity Substrate (Thermo Fisher, #34096).

[2] = target: T1, BTK; test: BTK-GFP degradation by flow cytometry in TMD8 BTK-GFP/mCh cells; type: cell-based; parameters: performed with full-length BTK and endogenous DCAF1; expressed in transfected cells; host or cells: TMD8 cells, lentiviral, blasticidin-selected (TMD8 BTK-GFP/mCh); conditions: for max. BTK degradation (%) / DC50: 24 h
Procedure: The bicistronic pLenti6 BTK-GFP-chysel-mCHERRY expression vector was cloned as described[92] using Gateway cloning with a pENTR-BTK plasmid lacking a STOP codon. TMD8 cells were then infected with lentiviral particles from this vector as described above and stably transfected cells were selected with blasticidin at a concentration of 10 μg/mL referred to as TMD8 BTK-GFP/mCh cells.
(§1) For flow cytometry measurements, 25,000 exponentially growing TMD8 BTK-GFP/mCh cells were plated in 100 μL of each well of a 96-well plate and grown for 24 h. Cells were then dosed with corresponding compounds and doses from 10 mM DMSO stock for 24 h, after which GFP and mCherry fluorescence was read with a Beckmann Coulter Cytoflex. For competition experiment, both compounds were added at the same time and dosed for 24 h. Cells were gated based on Forward & Side Scatter and selection for Single cells using SSC-A vs. SSC-H. Further, the population of viable cells was defined by the forward & side-scatter characteristics of DMSO-treated cells. To confirm cells outside of this population as non-viable, cells were plated and treated for 24 h, washed with PBS and stained for 30 min with two markers of early (Annexin-V) and late (LIVE/DEAD) apoptosis. Effects on viability were measured by the reduction of the percentage of cells included in this viable-population gate with increasing doses of compound tested. Degradation of BTK was calculated based on subtracting background (BG) fluorescence of parental TMD8 signal via (GFP-BG)/(mCherry-BG) of viable cells. Median ratios of three technical (different wells) replicates were used to calculate daily averages. Each compound dose–response was generated via three biological replicates (different days of experiment). Degradation curve parameters (DC50 & Abs. DC50 & max. Deg) were extracted using GraphPad Prism’s 4-parameter logistic curve fitting.

[3] = Viability by FSC/SSC gate (flow cytometry) in TMD8 BTK-GFP/mCh cells; type: cell-based, human; conditions: human, TMD8 BTK-GFP/mCh cells, TMD8 BTK-GFP/mCh, 24 h
Procedure: as §1, with “To confirm cells outside of this population as non-viable, cells were plated and treated for 24 h, washed with PBS and stained for 30 min with two markers of early (Annexin-V) and late (LIVE/DEAD) apoptosis.” left out
The viability window was determined by measuring the GI50 of viability based on the percentage of cells included in the viable gate and comparing it to the DC50 of degradation. The fold-change difference describing this window is [GI50 Viability / DC50 Degradation], where values above 1 indicate a positive (lower DC50 degradation than AC50 viability) window.

[4] = target: T2, DCAF1(WDR) (Homo sapiens, UniProt Q9Y4B6, E1398S); test: SPR, surface immobilized DCAF1(WDR), binary compound binding
T2 construct: His6 (C); made in house; host or cells: Sf9 insect cells (baculovirus), co-expressed with BirA
T2 sequence (Q9Y4B6 1073-1399 E1398S): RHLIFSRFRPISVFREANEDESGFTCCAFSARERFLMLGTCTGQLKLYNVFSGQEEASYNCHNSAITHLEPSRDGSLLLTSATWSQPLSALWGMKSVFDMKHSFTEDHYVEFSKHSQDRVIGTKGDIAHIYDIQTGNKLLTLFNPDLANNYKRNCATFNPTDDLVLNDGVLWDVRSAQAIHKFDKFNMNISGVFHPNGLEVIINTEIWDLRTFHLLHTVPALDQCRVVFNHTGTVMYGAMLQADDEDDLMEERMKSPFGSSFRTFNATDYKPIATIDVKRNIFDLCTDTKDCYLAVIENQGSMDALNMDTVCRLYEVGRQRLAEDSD

[5] = TMD8 BTK-GFP/mCh, read-out: DC50 BTK-Degradation
[6] = Fig. 6b, SPR, read-out: KD DCAF1
[7] = Fig. 6b, read-out: DC50 BTK degradation (24h)
[8] = TMD8 BTK-GFP/mCh, read-out: Absolute DC50 BTK-Degradation

T1 sequence (Q06187 2-659 limits assumed): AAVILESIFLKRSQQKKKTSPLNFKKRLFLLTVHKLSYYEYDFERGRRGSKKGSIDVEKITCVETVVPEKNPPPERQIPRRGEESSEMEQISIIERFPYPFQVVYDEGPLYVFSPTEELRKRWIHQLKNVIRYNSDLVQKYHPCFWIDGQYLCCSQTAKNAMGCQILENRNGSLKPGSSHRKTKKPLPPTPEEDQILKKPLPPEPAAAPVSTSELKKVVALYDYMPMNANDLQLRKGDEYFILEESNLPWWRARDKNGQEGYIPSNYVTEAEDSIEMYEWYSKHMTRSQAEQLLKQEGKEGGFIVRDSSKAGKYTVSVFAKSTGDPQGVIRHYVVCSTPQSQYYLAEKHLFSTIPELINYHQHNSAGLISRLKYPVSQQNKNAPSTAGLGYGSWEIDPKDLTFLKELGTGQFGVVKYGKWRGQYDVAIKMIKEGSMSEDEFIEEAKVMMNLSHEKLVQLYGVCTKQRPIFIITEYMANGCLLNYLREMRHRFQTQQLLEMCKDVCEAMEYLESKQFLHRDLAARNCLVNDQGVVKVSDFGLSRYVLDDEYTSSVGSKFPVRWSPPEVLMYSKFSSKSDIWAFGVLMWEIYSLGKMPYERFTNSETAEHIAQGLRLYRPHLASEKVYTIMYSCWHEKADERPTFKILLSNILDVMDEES

In the case of `CC(=O)N1CCN(c2ccc3c(NCCN)nc(C4(c5ccc(Cl)cc5)CCCCC4)nc3c2)CC1` [compound 13], the “BTK reduction by control treatment” value ([1]; TMD8, 1 µM, 1, 3, 6 and 24 h) is reported as “did not reduce BTK at any time points”, the “max. BTK degradation (%)” value ([2]; TMD8 BTK-GFP/mCh) is reported as 0% and the DC50 [2, 5] is reported as greater than 25000 nM. The GI50 at 24 h ([3]; read-out: Abs GI50) was 5220 nM and the GI50 at 24 h ([3]; read-out: GI50) was 5040 nM.
For `Cc1c(NC(=O)N2CC(O)(CC(C)(C)C)C2)cc(F)cc1-c1ncnc2[nH]c(-c3cnn(CC(=O)N4CCC5(CC4)CN(CCNC(=O)CCCC(=O)N4CCN(c6ccc7c(NCCN)nc(C8(c9ccc(Cl)cc9)CCCCC8)nc7c6)CC4)CCO5)c3)cc12` [DBt-10], the Kd [4, 6] was 147 nM, the “concentration giving significant reduction of BTK” value ([1]; TMD8, 6 h dose-response, immunoblot) was 2.5 µM and the “max. BTK degradation (24h, %)” value ([2]; Fig. 6b) was 94%. For the same molecule, the DC50 [2, 7] was 137 nM, the “max. BTK degradation (%)” value ([2]; TMD8 BTK-GFP/mCh) was 94% and the DC50 [2, 8] was 149 nM. For the same molecule, the DC50 [2, 5] was 137 nM and the GI50 at 24 h ([3]; read-out: GI50) was greater than 25000 nM.
For `Cc1nc(Nc2ncc(C(=O)Nc3c(C)cccc3Cl)s2)cc(N2CCC(OC3CCN(CCCCCCCC(=O)N4CCN(c5ccc6c(NCCN)nc(C7(c8ccc(Cl)cc8)CCCCC7)nc6c5)CC4)CC3)CC2)n1` [DDa-1], the BTK degradation potency ([1]; TMD8, 24 h, immunoblot) was “sub-µM potency”, the DC50 [2, 8] was 146 nM and the DC50 [2, 5] was 91.3 nM. The DC50 ([2]; TMD8 BTK-GFP/mCh, read-out: DC50 BTK-GFP degradation) was 90 nM, the GI50 at 24 h ([3]; read-out: Abs GI50) was 1200 nM and the GI50 at 24 h ([3]; read-out: GI50 viability) was 1200 nM.
In the case of `Cc1c(NC(=O)c2ccc(C(C)(C)O)cc2F)cc(F)cc1-c1ncnc2[nH]c(-c3ccc(CNCCOCCOCCOCCOCCOCCOCCOCCOCCOCCOCCOCCOCCC(=O)N4CCN(c5ccc6c(NCCN)nc(C7(c8ccc(Cl)cc8)CCCCC7)nc6c5)CC4)cc3)cc12` [DBt-5], the Kd [4, 6] is reported as 90 nM, the “max. BTK degradation (24h, %)” value ([2]; Fig. 6b) is reported as 100% and the DC50 [2, 7] is reported as 50 nM. The “max. BTK degradation (%)” value ([2]; TMD8 BTK-GFP/mCh) was 100%, the DC50 [2, 8] was 50 nM and the DC50 [2, 5] was 50 nM. For the same molecule, the GI50 at 24 h ([3]; read-out: Abs GI50) was 4120 nM and the GI50 at 24 h ([3]; read-out: GI50) was 4240 nM.
Molecule `COc1cc(-c2cn(C)c(=O)c3cnccc23)c(OC)cc1CN1CCC(OCCCCCC(=O)N2CCN(c3ccc4c(NCCN)nc(C5(c6ccc(Cl)cc6)CCCCC5)nc4c3)CC2)CC1` [DBr-1] has a Kd ([4]; binary, compound alone, spread in brackets, read-out: SPR KD) of 13 nM.

From publication PMC10766610, “DCAF1-based PROTACs with activity against clinically validated targets overcoming intrinsic- and acquired-degrader resistance” (Nature Communications, 2024)
